Measured values from ChEMBL document CHEMBL2146418, “Synthesis and comparison of antiplasmodial activity of (+), (-) and racemic 7-chloro-4-(N-lupinyl)aminoquinoline” (Bioorg Med Chem, 2012).

Assays:
[1] = Therapeutic index, ratio of IC50 for human HMEC1 cells to IC50 for Plasmodium falciparum; assay type: cell-based; conditions: HMEC1 cells versus Plasmodium falciparum, read-out: Ratio IC50
[2] = Cytotoxicity against human HDF cells after 72 hrs by MTT assay; assay type: cell-based
[3] = Cytotoxicity against human HMEC1 cells after 72 hrs by MTT assay; assay type: cell-based; conditions: HMEC-1, 72 h
Plasmodium falciparum [4] = test: Antiplasmodial activity against chloroquine-resistant Plasmodium falciparum isolate Kenya after 72 hrs by lactate dehydrogenase assay; assay type: functional, organism-based
Plasmodium falciparum [5] = test: Antiplasmodial activity against chloroquine-resistant Plasmodium falciparum W2 infected in human RBC assessed as inhibition of parasite growth after 72 hrs by lactate dehydrogenase assay; assay type: functional, organism-based; conditions: W2, 72 h
Plasmodium falciparum [6] = test: Antiplasmodial activity against chloroquine-sensitive Plasmodium falciparum 3D7 infected in human RBC assessed as inhibition of parasite growth after 72 hrs by lactate dehydrogenase assay; assay type: functional, organism-based; conditions: 3D7, 72 h
Plasmodium falciparum [7] = test: Antiplasmodial activity against chloroquine-sensitive Plasmodium falciparum D10 infected in human RBC assessed as inhibition of parasite growth after 72 hrs by lactate dehydrogenase assay; assay type: functional, organism-based; conditions: D10, 72 h

SMILES | selectivity ratio [1] | IC50 [2] [nM] | IC50 [3] [nM] | IC50 (Plasmodium falciparum [4]) [nM] | IC50 (Plasmodium falciparum [5]) [nM] | IC50 (Plasmodium falciparum [6]) [nM] | IC50 (Plasmodium falciparum [7]) [nM]
Clc1ccc2c(NCC3CCCN4CCCCC34)ccnc2c1 (racemic) | > 1000 | 24600 | > 60000 | 19.4 | 35.4 | 18.6 | 16.1
Clc1ccc2c(NC[C@@H]3CCCN4CCCC[C@H]34)ccnc2c1 | > 1000 | 22600 | > 49000 | 29.2 | 53.7 | 28.1 | 24
CCN(CC)CCCC(C)Nc1ccnc2cc(Cl)ccc12 (stereo not drawn) [CHLOROQUINE] | – | > 38000 | > 38000 | – | – | – | –
Clc1ccc2c(NC[C@H]3CCCN4CCCC[C@@H]34)ccnc2c1 | > 1000 | 26900 | > 60000 | 18.9 | 35.8 | 21.9 | 17.5
